The text below walks through data of patent publication US6680325B2, “Agents for combating plant pests” (Bayer Aktiengesellschaft, priority 1998, dated 2004).

The subject of experiment [1] is Spodoptera frugiperda. The experiment is described as follows: Critical concentration test/soil insects, Spodoptera frugiperda (maize). In kind it is in vivo. From the text: (§1) The active compound preparation is mixed intimately with soil. Here, the concentration of the active compound in the preparation is almost irrelevant; only the amount by weight of active compound or active compound mixture per volume unit of soil, which is stated in ppm (mg/l), matters.

Experiment [2] deals with Phaedon cochleariae larvae. The experiment is described as follows: Critical concentration test/root-systemic action, Phaedon cochleariae (cabbage). In kind it is in vivo. Here is the method: as §1
Soil is filled into 250 ml pots and these are planted with cabbage (Brassica oleracea). The active compound or the active compound combination can thus be taken up by the plant roots from the soil and transported into the leaves.

A further experiment concerns Pyrenophora teres. The experiment is described as follows: Pyrenophora teres test (barley)/protective. In kind it is in vivo. Particulars: 7 days after inoculation, single value given. Here is the method:
After the spray coating has dried on, the plants are sprayed with a conidia suspension of Pyrenophora teres.
The plants are then placed in a greenhouse at a temperature of approximately 20° C. and a relative atmospheric humidity of approximately 80%.
Evaluation is carried out 7 days after the inoculation.

The subject of experiment [3] is Heliothis virescens caterpillars. Briefly: Heliothis virescens test (soya bean shoot dip). The experiment is classed as in vivo.
Experiment [4] relates to Diabrotica balteata - larvae in the soil. The experiment is described as follows: Critical concentration test/soil insects, Diabrotica balteata larvae in the soil (maize). In kind it is in vivo. Here is the method: Here, the concentration of the active compound in the preparation is almost irrelevant; only the amount by weight of active compound per volume unit of soil, which is stated in ppm (mg/l), matters. The soil is filled into 0.51 pots and these are allowed to stand at 20° C.
Immediately after preparation, 5 maize corns are placed into each pot. After 3 days, the test insects are placed into the treated soil. After a further 7 days, the efficacy is determined. The efficacy is calculated from the number of maize plants which have emerged.

The subject of experiment [5] is Spodoptera frugiperda. The experiment is described as follows: Critical concentration test/root systemic action, Spodoptera frugiperda (maize). The experiment is classed as in vivo. Here is the method: The preparation of active compound is mixed intimately with soil. Here, the concentration of the active compound in the preparation is virtually immaterial; only the amount by weight of active compound per volume unit of soil, which is stated in ppm (mg/l), matters. The soil is filled into 250 ml pots and these are allowed to stand at 20° C.
Immediately after preparation, 3 maize corns are placed into each pot. 14 days after the preparation, the test insects are placed into an insect bracket and attached to the plant. 4 days after the infection, the efficacy of the active compound is determined in % by counting the dead and live test insects. The efficacy is 100% if all test insects have been killed; it is 0% if the same number of test insects is alive as in the untreated control.

For another experiment, the system named is Sphaerotheca fuliginea. Briefly: Sphaerotheca test (cucumber)/protective. In kind it is in vivo. Particulars: 10 days after inoculation. The method, then: After the spray coating has dried on, the plants are inoculated with an aqueous spore suspension of Sphaerotheca fuliginea.
(§2) Evaluation is carried out 10 days after the inoculation.

Another experiment relates to Botrytis cinerea. The experiment is described as follows: Botrytis test (bean)/protective. Particulars: 2 days after inoculation.
The next experiment relates to Fusarium culmorum. The experiment is described as follows: Fusarium culmorum test (wheat)/seed treatment. In kind it is in vivo. Particulars: 75 g/ha, dry seed dressing, approximately 3 weeks after sowing. Here is the method: Fusarium Culmorum Test (Wheat)/Seed Treatment
The active compounds are applied as a dry dressing. They are prepared by extending the active compound in question with ground minerals to give a finely pulverulent mixture which ensures even distribution on the surface of the seeds.
For the dressing, the infected seeds are shaken with the dressing in a closed glass bottle for 3 minutes.
2×100 seeds of the wheat are sown at a depth of 1 cm into standard soil, and the wheat is cultivated in a greenhouse at a temperature of approximately 18° C. and at a relative atmospheric humidity of approximately 95% in seed containers receiving 15 hours of light per day.
The evaluation of the plants for symptoms is carried out approximately 3 weeks after sowding.

For experiment [6], the system named is Erysiphe graminis f.sp. hordei. The experiment is described as follows: Erysiphe test (barley)/protective. The experiment is classed as in vivo. Particulars: 62.5 g/ha, 7 days after inoculation; single value given.
Experiment [7] concerns green rice leaf hopper (Nephotettix cincticeps). The experiment is described as follows: Nephotettix test (rice seedling dip). In kind it is in vivo.
The test system of another experiment is Puccinia recondita. Briefly: Puccinia test (wheat)/protective. In kind it is in vivo. Particulars: 18.75 g/ha, 10 days after inoculation. The method, then:
After the spray coating has dried on, the plants are sprayed with a conidia suspension of Puccinia recondita.
The plants are then placed in a greenhouse at a temperature of approximately 20° C. and a relative atmospheric humidity of 80% to promote the development of rust pustules.
as §2

In experiment [8] the test system is caterpillars of the diamondback moth (Plutella xylostella). Briefly: Plutella test (cabbage leaf dip). In kind it is in vivo.
Experiment [9] relates to larvae of the mustard beetle (Phaedon cochleariae). The experiment is described as follows: Phaedon larvae test (cabbage leaf dip).
A further experiment concerns Phytophthora infestans. The experiment is classed as in vivo. Particulars: 3 days after inoculation.
Setting [10] is: Spodoptera frugiperda, 120 h, 20.00 ppm in soil, read-out: Kill in %.
Where [11] appears, read: Spodoptera frugiperda, soil, 120 h, read-out: Kill in %.

Where two headings read alike, the source gives them in different places.

Excerpt for Botrytis cinerea: If the actual fungicidal activity exceeds the calculated value, then the activity of the combination is superadditive, i.e. a synergistic effect exists. In this case, the efficacy which was actually observed must be greater than the value for the expected efficacy (E) calculated from the formula set out above.
After the spray coating has dried on, 2 small pieces of agar colonized by Botrytis cinerea are placed onto each leaf. The inoculated plants are placed in a dark chamber at approximately 20° C. and 100% relative atmospheric humidity.
2 days after the inoculation, the size of the disease spots on the leaves is evaluated.

In the case of `CO/C=C(/C(=O)OC)c1ccccc1Oc1cc(Oc2ccccc2C#N)ncn1` [azoxystrobin], in the experiment with Spodoptera frugiperda [1] (setting [10]), the pest or weed control at 20 ppm worked out at 0%. Further, the Kill in % in experiment [2] (20.00 ppm in soil) and in [3] (concentration 0.0008 %) was 0% each time. For the same compound, the “Efficacy in % calculated/found” value in the experiment on Pyrenophora teres (18.75 g/ha) is reported as 0%.

With `CC(C)(C)C(O)C(Oc1ccc(-c2ccccc2)cc1)n1cncn1` (centres unmarked) [bitertanol], in the experiment on Spodoptera frugiperda [1] (setting [10]), the pest or weed control at 20 ppm was determined as 0%. For the same compound, the Kill in % in experiment [2] (20.00 ppm in soil) is recorded as 0%.

In experiment [4] (20.00 ppm in soil), `CO/N=C(\C1=NOCCO1)c1ccccc1Oc1ncnc(Oc2ccccc2Cl)c1F` [compound according to (48)] displayed a Kill in % of 20.00 ppm = 0%.

In [4] (20.00 ppm in soil), `Cc1noc(C)c1S(=O)(=O)n1c(Cl)nc2cc3c(cc21)OC(F)(F)O3` [compound according to (50)] returned a Kill in % of 20.00 ppm = 70%.

In the case of `OC(Cc1ccccc1Cl)(Cn1nc[nH]c1=S)C1(Cl)CC1` (centres unmarked) [compound of group (49)], the Kill in % in the experiment on Spodoptera frugiperda [5] (5.00 ppm in soil) was found to be 5.00 ppm = 0%.

Turning to `CC(C1CC1)C(O)(Cn1cncn1)c1ccc(Cl)cc1` (centres unmarked) [cyproconazole], in the experiment with Spodoptera frugiperda [1] (setting [10]), the pest or weed control at 20 ppm amounted to 0%. For the same compound, the “Efficacy in % found” value in the experiment on Sphaerotheca fuliginea (10 g/ha) is 70%.

`N#Cc1c[nH]cc1-c1cccc(Cl)c1Cl` [fenpiclonil]: the pest or weed control at 20 ppm in the experiment with Spodoptera frugiperda [1] (setting [10]) was found to be 0%. In addition, the Kill in % in experiment [2] (20.00 ppm in soil) stood at 0%. Also, the “Efficacy in % found” value in the experiment on Sphaerotheca fuliginea (500 g/ha) is 50%.

As for `N#Cc1c[nH]cc1-c1cccc2c1OC(F)(F)O2` [fludioxonil], in the experiment with Botrytis cinerea (10 g/ha), the “Efficacy in % found” value turned out to be 40%. Moreover, in the experiment with Fusarium culmorum, the Efficacy in % came to 0%.

Consider `CNC(=N[N+](=O)[O-])NCc1cnc(Cl)s1` [formula (I)], for which the pest or weed control at 0.06 ppm in the experiment with Spodoptera frugiperda [1] (setting [11]) amounted to 98%. Further, the pest or weed control at 0.3 ppm with Spodoptera frugiperda [1] (setting [11]) stood at 50%. For the same compound, the pest or weed control at 1.25 ppm in the experiment with Spodoptera frugiperda [1] (setting [11]) was found to be 100%. The figures for the “Efficacy in % calculated/found” value (in experiment [6]; with Pyrenophora teres (18.75 g/ha); with Pyrenophora teres (62.5 g/ha)) were 0%, 20% and 0%, respectively. Besides, the Kill in % in experiment [2] (0.30 ppm in soil) is recorded as 50%; in [2] (0.60 ppm in soil), 80%; in experiment [2] (1.25 ppm in soil), 100%; in [7] (concentration 0.00000128 %), 0%; in experiment [3] (concentration 0.00016 %) it was 50%; with Spodoptera frugiperda [5] (0.15 ppm in soil), 0.15 ppm = 50%. In addition, the Kill in % turned out to be 0% in experiment [8] (concentration 0.0008 %); 0.15 ppm = 0% in experiment [4] (0.15 ppm in soil); 0.30 ppm = 50% in experiment [4] (0.30 ppm in soil); 0% in experiment [9] (concentration 0.000032 %); 20% in [9] (concentration 0.00016 %). Moreover, the “Efficacy in % found” value in the experiment on Sphaerotheca fuliginea (10 g/ha) turned out to be 0%; with Sphaerotheca fuliginea (500 g/ha) it was 0%; in the experiment with Botrytis cinerea (10 g/ha), 0%; with Botrytis cinerea (100 g/ha), 4%. In addition, the Efficacy in % with Fusarium culmorum and in the experiment on Puccinia recondita was 0% throughout.

For `CO/N=C(/C(=O)OC)c1ccccc1COc1ccccc1C` [kresoxim-methyl], the “Efficacy in % calculated/found” value in experiment [6] is 0%. This compound registered a Kill in % in experiment [9] (concentration 0.1 %) of 0%.

For `COCC(=O)N(c1c(C)cccc1C)C(C)C(=O)OC` (centres unmarked) [metalaxyl], the pest or weed control at 20 ppm with Spodoptera frugiperda [1] (setting [10]) amounted to 0%. The Kill in % in experiment [2] (20.00 ppm in soil), in [7] (concentration 0.1 %) and in experiment [8] (concentration 0.1 %) was 0% throughout. Also, in the experiment on Phytophthora infestans (50 g/ha), the “Efficacy in % found” value was determined as 42%.

On to `CC(C)(C)C(O)(CCc1ccc(Cl)cc1)Cn1cncn1` (centres unmarked) [tebuconazole], for which, in the experiment on Spodoptera frugiperda [1] (setting [10]), the pest or weed control at 20 ppm is 0%. Also, the Kill in % in experiment [2] (20.00 ppm in soil) and in experiment [8] (concentration 0.02 %) was 0% each time. Moreover, the “Efficacy in % found” value in the experiment with Botrytis cinerea (100 g/ha) is 80%.

For the compound `CC(C)(C)C(O)C(Oc1ccc(Cl)cc1)n1cncn1` (centres unmarked) [triadimenol], the pest or weed control at 20 ppm in the experiment on Spodoptera frugiperda [1] (setting [10]) is 0%. For the same compound, the Kill in % in [2] (20.00 ppm in soil) is listed as 0%. Also, the Efficacy in % in the experiment on Fusarium culmorum came out at 13.5%; in the experiment on Puccinia recondita, 13%. For the same compound, in the experiment on Phytophthora infestans (500 g/ha), the “Efficacy in % found” value was found to be 0%.

With `[O-][n+]1nc(-n2ccnc2)nc2ccc(Cl)cc21` [triazoxides], in the experiment on Pyrenophora teres (62.5 g/ha), the “Efficacy in % calculated/found” value is 40%.

Consider propiconazole, for which the Kill in % (with Spodoptera frugiperda [1] (20.00 ppm in soil); in experiment [2] (20.00 ppm in soil)) was 0% in each case. For the same compound, the “Efficacy in % found” value in the experiment with Phytophthora infestans (500 g/ha) was 5%.
